Reference: paper PMC4697443 (Bioorganic & medicinal chemistry, 2015)
Marks after values point to notes of the source that are not given here.

System: BV2 microglial cells

With “3-Chloro-N-(1-methyl-1H-benzo[d]imidazol-2-yl)benzamide [Compound 7]” as the substance, how does the Viability read?
Its Viability is 1000^d μM.
